Target: T1, ΔF508-CFTR (Homo sapiens, UniProt P13569, DEL508-508)
T1 construct: expressed in transfected cells; host or cells: CFSMEo- (human CF submucosal gland epithelial cells, ΔF508/Q2X), transiently transfected by nucleofection
Experiment: ΔF508-CFTR-HRP trafficking assay (cell surface expression of ΔF508-CFTR)
Format: cell-based
Settings: CFSMEo- cells transiently transfected with ΔF508-CFTR-HRP; test agent 3 μM, 48 h; HRP chemiluminescence
Text: Test agents were screened for their effect on cell surface expression of ΔF508-CFTR using the ΔF508-CFTR-HRP trafficking assay. For this assay, a ΔF508-CFTR expression construct was designed with an in-frame insertion of a horseradish peroxidase (HRP) tag into the 4th extracellular loop of CFTR. The HRP tag would be presented extracellularly, in cells transiently transfected with the ΔF508-CFTR-HRP construct, following correction of the ΔF508-CFTR trafficking defect. The quantity of ΔF508-CFTR-HRP expressed on the plasma membrane could therefore be determined by measuring an HRP-dependent signal after the application of a cell-impermeable HRP substrate.
In brief, CF submucosal gland epithelial cells (CFSMEo-), derived from the airways of a CF patient (ΔF508/Q2X) and provided by Dr. Dieter Gruenert, University of California-San Francisco, were cultured at 37° C. with 5% CO2 in minimum essential medium (MEM) with Earle's salt and nonessential amino acids, supplemented with 10% (volume per volume [v/v]) fetal bovine serum, 2 mM L-glutamine and 1× (v/v) penicillin/streptomycin and grown in tissue culture-treated flasks coated with an extracellular matrix (ECM) cocktail consisting of 10 μg/mL human fibronectin, 30 μg/mL bovine collagen type I, and 100 μg/mL bovine serum albumin in LHC basal medium. These CFSMEo^− cells were transiently transfected with 4 μg of the ΔF508-CFTR-HRP expression construct using the Lonza 4D-Nucleofector Core unit (Lonza, Catalogue No. AAF-1002B) with the X unit (Lonza, Catalogue No. AAF-1002X) and SF Cell Line 4D-Nucleofector X Kit L (Lonza, Catalogue No. V4XC-2024) according to the manufacturer's instructions and plated at 1.2×10^4 cells/well onto collagen-coated, 96-well plates (Corning Inc.). Twenty-four h post-transfection, cells were treated with test agents, solubilized in DMSO at a concentration of 3 μM in replicates of 3, and allowed to incubate for 48 h. To detect HRP expression, cell culture media was removed, cells were washed with PBS and 100 μL of Luminata Forte HRP chemiluminescent substrate (EMD Millipore, Burlington, MA) was added to each well. Following a 5-minute incubation, chemiluminescence was measured in relative luminescent units (RLUs) using an EnVision plate reader (Perkin Elmer, Waltham, MA).
The ΔF508-CFTR-HRP trafficking data was normalized to the vehicle treated control (0.3% DMSO), followed by calculation of the mean, standard deviation, and standard error. If the test agent increased cell surface expression of ΔF508-CFTR-HRP relative to the vehicle-treated control, then that test agent was considered a ΔF508-CFTR corrector. Based on the description above, the biological activity of the examples in this disclosure is collected in Table 2.

T1 sequence (P13569 with tags, fused parts or gaps DEL508-508): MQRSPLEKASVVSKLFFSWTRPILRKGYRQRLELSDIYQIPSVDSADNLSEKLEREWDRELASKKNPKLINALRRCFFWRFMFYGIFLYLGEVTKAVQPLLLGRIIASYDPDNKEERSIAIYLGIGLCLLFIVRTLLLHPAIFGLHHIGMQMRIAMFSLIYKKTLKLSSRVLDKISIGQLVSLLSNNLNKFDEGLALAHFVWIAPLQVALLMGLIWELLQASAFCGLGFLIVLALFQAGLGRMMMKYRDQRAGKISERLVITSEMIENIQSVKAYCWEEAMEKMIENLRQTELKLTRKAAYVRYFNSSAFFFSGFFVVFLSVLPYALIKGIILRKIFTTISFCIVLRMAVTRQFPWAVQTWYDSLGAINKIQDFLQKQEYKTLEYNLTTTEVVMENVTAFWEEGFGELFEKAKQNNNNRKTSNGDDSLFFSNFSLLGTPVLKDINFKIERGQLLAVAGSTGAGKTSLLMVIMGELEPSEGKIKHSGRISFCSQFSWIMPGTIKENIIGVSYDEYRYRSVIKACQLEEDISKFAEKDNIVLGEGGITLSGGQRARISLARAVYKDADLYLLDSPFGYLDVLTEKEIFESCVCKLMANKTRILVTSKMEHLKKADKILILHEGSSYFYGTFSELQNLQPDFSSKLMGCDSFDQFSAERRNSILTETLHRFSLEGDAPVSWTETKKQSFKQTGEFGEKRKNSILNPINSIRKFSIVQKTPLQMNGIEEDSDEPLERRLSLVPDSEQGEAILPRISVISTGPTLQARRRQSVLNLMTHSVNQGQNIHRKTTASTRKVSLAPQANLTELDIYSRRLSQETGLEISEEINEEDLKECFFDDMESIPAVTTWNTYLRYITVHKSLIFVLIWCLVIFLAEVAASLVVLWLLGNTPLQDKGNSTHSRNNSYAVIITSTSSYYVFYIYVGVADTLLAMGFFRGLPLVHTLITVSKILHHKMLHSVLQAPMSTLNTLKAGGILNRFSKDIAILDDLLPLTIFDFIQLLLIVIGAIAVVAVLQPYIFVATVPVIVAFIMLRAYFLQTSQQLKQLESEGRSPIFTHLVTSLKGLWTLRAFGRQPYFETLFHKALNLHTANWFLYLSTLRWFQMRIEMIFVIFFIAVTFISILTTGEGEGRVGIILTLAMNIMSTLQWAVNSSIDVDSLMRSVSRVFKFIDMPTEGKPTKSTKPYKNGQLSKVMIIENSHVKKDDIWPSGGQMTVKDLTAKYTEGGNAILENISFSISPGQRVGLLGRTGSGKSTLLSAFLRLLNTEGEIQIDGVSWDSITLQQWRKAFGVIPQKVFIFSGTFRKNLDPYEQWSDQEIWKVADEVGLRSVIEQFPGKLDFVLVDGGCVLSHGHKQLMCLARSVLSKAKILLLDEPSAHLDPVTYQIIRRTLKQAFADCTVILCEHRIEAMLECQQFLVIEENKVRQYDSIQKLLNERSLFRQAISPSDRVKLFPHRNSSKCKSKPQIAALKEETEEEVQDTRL

RLUs: ΔF508-CFTR-HRP trafficking data normalized to the vehicle treated control (0.3% DMSO) | Structure (SMILES)
A (RLU 5.0 μM-10 μM) | C[C@H](Oc1cncc(-n2nc(C(F)(F)F)c3c2[C@@H](OC24CC(C(=O)O)(C2)C4)CCC3)c1)c1cc2c(cc1F)OC(F)(F)O2 (single isomer, unassigned) [74 (P1)]
C (RLU 0.0 μM-3.5 μM) | C[C@H](Oc1cc(-n2nc(C(F)(F)F)c3c2[C@@H](OC24CC(C(=O)O)(C2)C4)CCC3)cnc1F)c1cc2c(cc1F)OC(F)(F)O2 (single isomer, unassigned) [75 (P1)]
C (RLU 0.0 μM-3.5 μM) | C[C@H](Oc1cc(-n2nc(C(F)(F)F)c3c2[C@@H](OC24CC(C(=O)O)(C2)C4)CCC3)ccc1F)c1ccc2c(c1)OC(F)(F)O2 (single isomer, unassigned) [76 (P1)]
B (RLU 3.5 μM-5.0 μM) | C[C@H](Oc1cccc(-n2nc(C(F)(F)F)c3c2[C@@H](OC24CC(C(=O)O)(C2)C4)CCC3)n1)c1ccc2c(c1)OC(F)(F)O2 (single isomer, unassigned) [77 (P1)]
C (RLU 0.0 μM-3.5 μM) | C[C@H](Oc1cc(-n2nc(C(F)(F)F)c3c2[C@@H](OC24CC(CC(=O)O)(C2)C4)CCC3)ccc1F)c1ccc2c(c1)OC(F)(F)O2 (single isomer, unassigned) [78 (P1)]
C (RLU 0.0 μM-3.5 μM) | C[C@H](Oc1cc(-n2nc(C(F)(F)F)c3c2[C@H](OC24CC(CC(=O)O)(C2)C4)CCC3)ccc1F)c1ccc2c(c1)OC(F)(F)O2 (single isomer, unassigned) [78 (P2)]
B (RLU 3.5 μM-5.0 μM) | C[C@H](Oc1cc(-n2nc(C(F)(F)F)c3c2[C@@H](O[C@H]2CC[C@H](C(=O)O)CC2)CCC3)cnc1F)c1ccc2c(c1)OC(F)(F)O2 (single isomer, unassigned) [79 (P1)]
B (RLU 3.5 μM-5.0 μM) | C[C@H](Oc1cc(-n2nc(C(F)(F)F)c3c2[C@@H](OC[C@H]2CC[C@H](C(=O)O)CC2)CCC3)cnc1F)c1ccc2c(c1)OC(F)(F)O2 (single isomer, unassigned) [82 (P1)]
A (RLU 5.0 μM-10 μM) | C[C@H](Oc1cc(-n2nc(C(F)(F)F)c3c2[C@H](OC[C@H]2CC[C@H](C(=O)O)CC2)CCC3)cnc1F)c1ccc2c(c1)OC(F)(F)O2 (single isomer, unassigned) [82 (P2)]
B (RLU 3.5 μM-5.0 μM) | C[C@H](Oc1nc(-n2nc(C(F)(F)F)c3c2[C@@H](O[C@H]2C[C@H](C(=O)O)C2)CCC3)ccc1F)c1cc2c(cc1F)OC(F)(F)O2 (single isomer, unassigned) [84 (P1)]
B (RLU 3.5 μM-5.0 μM) | C[C@H](Oc1cc(-n2nc(C(F)(F)F)c3c2[C@H](OC24CC(c5nc(=O)o[nH]5)(C2)C4)CCC3)ccc1F)c1ccc2c(c1)OC(F)(F)O2 (single isomer, unassigned) [85 (P2)]
C (RLU 0.0 μM-3.5 μM) | C[C@H](Nc1cc(-n2nc(C(F)(F)F)c3c2[C@H](OC24CC(C(=O)O)(C2)C4)CCC3)ccc1F)c1ccc2c(c1)OC(F)(F)O2 (single isomer, unassigned) [95 (P2)]

Continued, molecule first:

Structure (SMILES) | RLUs: ΔF508-CFTR-HRP trafficking data normalized to the vehicle treated control (0.3% DMSO)
C[C@H](Oc1cccc(-n2nc(C(F)(F)F)c3c2C(O[C@H]2CC[C@H](C(=O)O)CC2)CCC3)c1)c1ccc2c(c1)OC(F)(F)O2 (relative stereo) [Example 37] | A (RLU 5.0 μM-10 μM)
C[C@H](Oc1cncc(-n2nc(C(F)(F)F)c3c2[C@H](OC24CC(C(=O)O)(C2)C4)CCC3)c1)c1cc2c(cc1F)OC(F)(F)O2 (single isomer, unassigned) [74 (P2)] | A (RLU 5.0 μM-10 μM)
C[C@H](Oc1cc(-n2nc(C(F)(F)F)c3c2[C@H](OC24CC(C(=O)O)(C2)C4)CCC3)cnc1F)c1cc2c(cc1F)OC(F)(F)O2 (single isomer, unassigned) [75 (P2)] | C (RLU 0.0 μM-3.5 μM)
C[C@H](Oc1cc(-n2nc(C(F)(F)F)c3c2[C@H](OC24CC(C(=O)O)(C2)C4)CCC3)ccc1F)c1ccc2c(c1)OC(F)(F)O2 (single isomer, unassigned) [76 (P2)] | C (RLU 0.0 μM-3.5 μM)
C[C@H](Oc1cccc(-n2nc(C(F)(F)F)c3c2[C@H](OC24CC(C(=O)O)(C2)C4)CCC3)n1)c1ccc2c(c1)OC(F)(F)O2 (single isomer, unassigned) [77 (P2)] | B (RLU 3.5 μM-5.0 μM)
C[C@H](Oc1cc(-n2nc(C(F)(F)F)c3c2[C@@H](O[C@H]2CC[C@H](C(=O)O)CC2)CCC3)cc(F)n1)c1ccc2c(c1)OC(F)(F)O2 (single isomer, unassigned) [80 (P1)] | A (RLU 5.0 μM-10 μM)
C[C@H](Oc1cc(-n2nc(C(F)(F)F)c3c2[C@H](OC24CCC(C(=O)O)(CC2)CC4)CCC3)cc(F)n1)c1ccc2c(c1)OC(F)(F)O2 (single isomer, unassigned) [81 (P1)] | A (RLU 5.0 μM-10 μM)
C[C@H](Oc1cc(-n2nc(C(F)(F)F)c3c2[C@@H](OC24CCC(C(=O)O)(CC2)CC4)CCC3)cc(F)n1)c1ccc2c(c1)OC(F)(F)O2 (single isomer, unassigned) [81 (P2)] | C (RLU 0.0 μM-3.5 μM)
C[C@H](Oc1cccc(-n2nc(C(F)(F)F)c3c2[C@@H](O[C@H]2C[C@H](C(=O)O)C2)CCC3)n1)c1cc2c(cc1F)OC(F)(F)O2 (single isomer, unassigned) [83 (P1)] | B (RLU 3.5 μM-5.0 μM)
C[C@H](Oc1cccc(-n2nc(C(F)(F)F)c3c2[C@H](O[C@H]2C[C@H](C(=O)O)C2)CCC3)n1)c1cc2c(cc1F)OC(F)(F)O2 (single isomer, unassigned) [83 (P2)] | C (RLU 0.0 μM-3.5 μM)
C[C@H](Oc1nc(-n2nc(C(F)(F)F)c3c2[C@H](O[C@H]2C[C@H](C(=O)O)C2)CCC3)ccc1F)c1cc2c(cc1F)OC(F)(F)O2 (single isomer, unassigned) [84 (P2)] | C (RLU 0.0 μM-3.5 μM)
C[C@H](Oc1cc(-n2nc(C(F)(F)F)c3c2[C@@H](OC24CC(c5nc(=O)o[nH]5)(C2)C4)CCC3)ccc1F)c1ccc2c(c1)OC(F)(F)O2 (single isomer, unassigned) [85 (P1)] | C (RLU 0.0 μM-3.5 μM)
C[C@H](Oc1cc(-n2nc(C(F)(F)F)c3c2[C@@H](OC24CC(c5nc(=O)o[nH]5)(C2)C4)CCC3)ccc1F)c1cc2c(cc1F)OC(F)(F)O2 (single isomer, unassigned) [86 (P1)] | C (RLU 0.0 μM-3.5 μM)
C[C@H](Oc1cc(-n2nc(C(F)(F)F)c3c2[C@H](OC24CC(c5nc(=O)o[nH]5)(C2)C4)CCC3)ccc1F)c1cc2c(cc1F)OC(F)(F)O2 (single isomer, unassigned) [86 (P2)] | C (RLU 0.0 μM-3.5 μM)
C[C@H](Nc1cc(-n2nc(C(F)(F)F)c3c2[C@@H](NC24CC(C(=O)O)(C2)C4)CCC3)ccc1F)c1ccc2c(c1)OC(F)(F)O2 (single isomer, unassigned) [94 (P1)] | C (RLU 0.0 μM-3.5 μM)
C[C@H](Nc1cc(-n2nc(C(F)(F)F)c3c2[C@H](NC24CC(C(=O)O)(C2)C4)CCC3)ccc1F)c1ccc2c(c1)OC(F)(F)O2 (single isomer, unassigned) [94 (P2)] | C (RLU 0.0 μM-3.5 μM)
C[C@H](Nc1cc(-n2nc(C(F)(F)F)c3c2[C@@H](OC24CC(C(=O)O)(C2)C4)CCC3)ccc1F)c1cc2c(cc1F)OC(F)(F)O2 (single isomer, unassigned) [96 (P1)] | B (RLU 3.5 μM-5.0 μM)
